The target of this experiment is T1, AgaB50 (Microbulbifer elongatus, UniProt A0A516UX44).
T1 construct: full-length precursor 769 aa; 26 N-terminal residues (SPII lipoprotein signal peptide) deleted; N-terminal His6 tag; E. coli BL21 (DE3), pFO4; about 82 kDa
T1 sequence (A0A516UX44 1-743): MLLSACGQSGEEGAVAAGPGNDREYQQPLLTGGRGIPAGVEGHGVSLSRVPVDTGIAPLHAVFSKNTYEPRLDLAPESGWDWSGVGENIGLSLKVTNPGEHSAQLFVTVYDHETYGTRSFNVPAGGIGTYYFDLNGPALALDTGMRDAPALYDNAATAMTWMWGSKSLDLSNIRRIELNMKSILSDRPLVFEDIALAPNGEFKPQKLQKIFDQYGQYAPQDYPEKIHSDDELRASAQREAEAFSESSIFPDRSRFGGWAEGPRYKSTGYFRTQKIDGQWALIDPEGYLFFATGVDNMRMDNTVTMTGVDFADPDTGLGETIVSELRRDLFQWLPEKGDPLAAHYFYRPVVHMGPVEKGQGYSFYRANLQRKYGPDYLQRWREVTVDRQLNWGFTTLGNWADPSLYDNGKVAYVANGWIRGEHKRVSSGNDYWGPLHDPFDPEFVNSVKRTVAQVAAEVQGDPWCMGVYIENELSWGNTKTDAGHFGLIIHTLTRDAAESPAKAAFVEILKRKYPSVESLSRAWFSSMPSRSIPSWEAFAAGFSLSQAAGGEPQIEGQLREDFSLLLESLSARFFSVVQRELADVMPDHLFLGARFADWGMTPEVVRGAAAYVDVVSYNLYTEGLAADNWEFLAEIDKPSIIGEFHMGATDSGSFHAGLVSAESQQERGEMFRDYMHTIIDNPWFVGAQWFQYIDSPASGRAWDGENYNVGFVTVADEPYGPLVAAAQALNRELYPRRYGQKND
Kind of experiment: HPLC-RID product analysis, end point. In kind it is biochemical. As to conditions: […] in ultrapure water, […] °C, overnight.

For the compound `OC[C@H]1O[C@@H](O[C@H]2[C@H]3OC[C@@H]2O[C@@H](O[C@H]2[C@@H](O)[C@@H](CO)O[C@@H](O[C@H]4[C@H]5OC[C@@H]4O[C@@H](O[C@H]4[C@@H](O)[C@@H](CO)O[C@@H](O[C@H]6[C@H]7OC[C@@H]6O[C@@H](O[C@H]6[C@@H](O)[C@@H](CO)OC(O)[C@@H]6O)[C@H]7O)[C@@H]4O)[C@H]5O)[C@@H]2O)[C@H]3O)[C@H](O)[C@@H](O[C@@H]2O[C@H]3CO[C@@H]([C@@H]2O)[C@@H]3O)[C@H]1O` (stereo partly shown) [NA8, neoagarooctaose], the “HPLC-RID product analysis, end point” value was “AgaB50 was able to convert larger NAOS such as NA8, NA6, and NA4”.
